Experimental data published in ChEMBL document CHEMBL4725243, “High-Throughput Screening for the Discovery of Enzyme Inhibitors” (J Med Chem, 2020).

Target: Immunoglobulin A1 protease autotransporter (Haemophilus influenzae (strain ATCC 51907 / DSM 11121 / KW20 / Rd), UniProt P44969)
Experiment: Inhibition of Haemophilus influenzae Rd IGA1 protease expressed in Escherichia coli BL21(DE3) preincubated for 1 hr followed by substrate addition and measured after 2 hrs by sandwich ELISA

Immunoglobulin A1 protease autotransporter, sequence (P44969 26-1014 limits assumed): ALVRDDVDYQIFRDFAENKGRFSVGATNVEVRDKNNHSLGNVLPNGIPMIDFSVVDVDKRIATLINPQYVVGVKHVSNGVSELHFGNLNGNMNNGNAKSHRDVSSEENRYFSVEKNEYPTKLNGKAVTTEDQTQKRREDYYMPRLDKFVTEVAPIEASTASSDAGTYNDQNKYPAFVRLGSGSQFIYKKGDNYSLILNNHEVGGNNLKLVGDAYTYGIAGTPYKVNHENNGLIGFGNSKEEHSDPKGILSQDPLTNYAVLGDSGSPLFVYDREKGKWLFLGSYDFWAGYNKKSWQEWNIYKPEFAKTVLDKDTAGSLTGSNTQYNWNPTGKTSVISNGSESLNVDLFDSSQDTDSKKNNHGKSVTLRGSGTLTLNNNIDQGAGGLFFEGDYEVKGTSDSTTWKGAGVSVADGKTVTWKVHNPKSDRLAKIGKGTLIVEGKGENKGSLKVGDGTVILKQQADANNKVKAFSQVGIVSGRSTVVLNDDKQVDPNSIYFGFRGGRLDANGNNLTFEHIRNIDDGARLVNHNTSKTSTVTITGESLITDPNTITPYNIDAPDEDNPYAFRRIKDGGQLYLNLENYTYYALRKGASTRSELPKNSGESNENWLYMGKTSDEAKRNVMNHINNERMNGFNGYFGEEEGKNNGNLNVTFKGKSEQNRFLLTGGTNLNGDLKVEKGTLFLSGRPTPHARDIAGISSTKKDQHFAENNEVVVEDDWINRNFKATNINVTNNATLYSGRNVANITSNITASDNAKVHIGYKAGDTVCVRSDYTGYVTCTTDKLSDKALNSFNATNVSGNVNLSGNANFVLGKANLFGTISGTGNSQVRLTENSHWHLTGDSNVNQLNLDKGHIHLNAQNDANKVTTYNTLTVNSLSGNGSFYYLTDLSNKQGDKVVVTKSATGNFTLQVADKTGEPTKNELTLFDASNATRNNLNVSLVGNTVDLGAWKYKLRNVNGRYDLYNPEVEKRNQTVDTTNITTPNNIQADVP

IC50 [µM]	Structure (SMILES)
3.7	O=C(Oc1nsnc1N1CCCCC1)C1CCOCC1
5.9	O=C(Oc1nsnc1N1CCOCC1)c1ccccc1
